Experimental data as given in patent publication US12643905B2, “Spiropyrrolidine derived antiviral agents” (priority 2021, dated 2026).

Assays:
SARS-CoV-2 3CL-protease = SARS-CoV-2 3CL-protease (Severe acute respiratory syndrome coronavirus 2, UniProt P0DTD1); assay: SARS-CoV-2 3C-like (3CL) protease fluorescence assay (FRET); assay type: biochemical; conditions: recombinant SARS-CoV-2 3CL-protease 10 nM, 30 min preincubation, run in duplicate; read-out: FRET IC50
[1] = tested on: 229E human corona virus (hCoV); assay: 229E live virus assay (CPE, ATPlite readout in MRC-5 cells); assay type: cell-based, hCoV-229E; conditions: Human coronavirus 229E, MRC5, 144 h, MOI 0.05, 6 days at 34° C., run in duplicate

Structure (SMILES)	IC50 (SARS-CoV-2 3CL-protease) [nM]	EC50 [1] [nM]
CC(C)(C)C[C@H](NC(=O)C(=O)c1ccccc1F)C(=O)N1C[C@]2(C[C@H]1C#N)C(=O)Nc1ccccc12 [Example 182]	100 to 1000	100 to 1000
CC(C)(C)C[C@H](NC(=O)C(=O)Nc1ccc2ccccc2c1)C(=O)N1C[C@]2(C[C@H]1C#N)C(=O)Nc1ccccc12 [Example 96]	< 100	< 100
CC(C)C[C@H]1C(=O)N2C[C@]3(C[C@H]2C#N)C(=O)Nc2ccc(cc23)CCCCCNC(=O)C(=O)N1C [Example 213]	100 to 1000	100 to 1000
CCC(C)NC(=O)C(=O)N[C@@H](CC(C)(C)C)C(=O)N1C[C@]2(C[C@H]1C#N)C(=O)Nc1ccccc12 (stereo partly shown) [Example 88]	< 100	< 100
CC(C)(C)C[C@H](NC(=O)C(=O)NC1(c2ccccc2)CCC1)C(=O)N1C[C@]2(C[C@H]1C#N)C(=O)Nc1ccccc12 [Example 119]	< 100	< 100
CC(C)(C)C[C@H](NC(=O)C(=O)Nc1c(C(F)(F)F)cccc1C(F)(F)F)C(=O)N1C[C@]2(C[C@H]1C#N)C(=O)Nc1ccccc12 [Example 138]	< 100	< 100
CC(C)(C)C[C@H](NC(=O)C(=O)Nc1ccc2cc(F)ccc2c1)C(=O)N1C[C@]2(C[C@H]1C#N)C(=O)Nc1ccccc12 [Example 85]	< 100	< 100
CC(C)(C)C[C@H](NC(=O)C(=O)NC1CCCC1)C(=O)N1C[C@]2(C[C@H]1C#N)C(=O)Nc1ccccc12 [Example 98]	< 100	< 100
CCCC[C@H](NC(=O)C(=O)NC1(c2ccc(F)cc2F)CC1)C(=O)N1C[C@]2(C[C@H]1C#N)C(=O)Nc1ccccc12 [Example 76]	< 100	< 100
CC(C)(C)C[C@H](NC(=O)C(=O)c1c[nH]c2ccccc12)C(=O)N1C[C@]2(C[C@H]1C#N)C(=O)Nc1ccccc12 [Example 181]	100 to 1000	100 to 1000
[2H]C([2H])([2H])N(C(=O)C(=O)NCc1ccc(F)cc1F)[C@@H](CC1CC1)C(=O)N1C[C@]2(C[C@H]1C#N)C(=O)Nc1ccccc12 [Example 190]	< 100	< 100
N#C[C@@H]1C[C@@]2(CN1C(=O)[C@H](CC1CC1)NC(=O)C(=O)Nc1ccc(F)cc1C(F)(F)F)C(=O)Nc1ccccc12 [Example 77]	< 100	< 100
N#C[C@@H]1C[C@@]2(CN1C(=O)[C@H](CC1CC1)NC(=O)C(=O)NC1(c3ccc(F)cc3F)CC1)C(=O)Nc1ccccc12 [Example 74]	< 100	< 100
CC(C)(C)C[C@H](NC(=O)C(=O)NC1(c2ccccc2)CC1)C(=O)N1C[C@]2(C[C@H]1C#N)C(=O)Nc1ccccc12 [Example 118]	< 100	< 100
CC(C)(C)C[C@H](NC(=O)C(=O)Nc1ccccc1F)C(=O)N1C[C@]2(C[C@H]1C#N)C(=O)Nc1ccccc12 [Example 90]	< 100	< 100
CCCC[C@H](NC(=O)C(=O)Nc1ccc(F)cc1C(F)(F)F)C(=O)N1C[C@]2(C[C@H]1C#N)C(=O)Nc1ccccc12 [Example 75]	< 100	< 100
CC(C)(C)C[C@H](NC(=O)C(=O)NC1CCCCC1)C(=O)N1C[C@]2(C[C@H]1C#N)C(=O)Nc1ccccc12 [Example 97]	< 100	< 100
CC(C)C[C@H]1C(=O)N2C[C@]3(C[C@H]2C#N)C(=O)Nc2ccc(cc23)/C=C\CCNC(=O)C(=O)N1C [Example 214]	100 to 1000	100 to 1000
CC(C)(C)C[C@H](NC(=O)C(=O)c1ccccc1)C(=O)N1C[C@]2(C[C@H]1C#N)C(=O)Nc1ccccc12 [Example 179]	100 to 1000	100 to 1000
CC(C)[C@H](NC(=O)C(=O)N[C@@H](CC(C)(C)C)C(=O)N1C[C@]2(C[C@H]1C#N)C(=O)Nc1ccccc12)c1ccccc1 [Example 116]	< 100	< 100
CC(C)(C)C[C@H](NC(=O)C(=O)Nc1ccc(F)cc1F)C(=O)N1C[C@]2(C[C@H]1C#N)C(=O)Nc1ccccc12 [Example 94]	< 100	< 100
Cc1cccc(C)c1NC(=O)C(=O)N[C@@H](CC(C)(C)C)C(=O)N1C[C@]2(C[C@H]1C#N)C(=O)Nc1ccccc12 [Example 84]	< 100	< 100
CC(C)(C)C[C@H](NC(=O)C(=O)C(C)(C)C)C(=O)N1C[C@]2(C[C@H]1C#N)C(=O)Nc1ccccc12 [Example 180]	> 1000	100 to 1000
CC(C)(C)C[C@H](NC(=O)C(=O)NC1CC(F)(F)C1)C(=O)N1C[C@]2(C[C@H]1C#N)C(=O)Nc1ccccc12 [Example 120]	< 100	< 100
C[C@@H](NC(=O)C(=O)N[C@@H](CC(C)(C)C)C(=O)N1C[C@]2(C[C@H]1C#N)C(=O)Nc1ccccc12)c1ccccc1 [Example 160]	< 100	< 100
CC(C)C[C@H]1C(=O)N2C[C@]3(C[C@H]2C#N)C(=O)Nc2ccc(cc23)CCCCNC(=O)C(=O)N1C [Example 211]	100 to 1000	100 to 1000
